Assay results as given in patent publication US20140100248A1, “Novel Heterocyclic Compounds as Modulators of Sphingolipid Signaling and Uses Thereof” (UNIVERSITÄT BERN, priority 2011, published 2014).

Assays:
[1] = test system: p42/44-MAPK phosphorylation in renal mesangial cells; test: MAPK/ERK (p42/44) phosphorylation in renal mesangial cells, Western blot; type: cell-based, rat; conditions: for effect on ST-968-induced p42/44 activation: pretreatment with pertussis toxin 100 ng/ml 16 h, or VPC23019 10 μM or W146 10 μM 30 min, then ST-968 1 μM 10 min; for agonistic potential on S1P receptors: concluded from MAPK/ERK activation and antagonist experiments; for p42/44 phosphorylation (p42/44-MAPK activity): rat renal mesangial cells, stimulation for 10 min
Procedure: (A+B): Confluent mesangial cells were pretreated for 16 h with pertussis toxin (100 ng/ml), or for 30 min with vehicle (−), VPC23019 (10 μM) and W146 (10 μM) prior to stimulation for 10 min with either vehicle (Co) or ST-968 (1 μM). (C): Cells were stimulated for 10 min with either vehicle (Co) or the indicated concentrations (in μM) of S1P and ST-1071. Thereafter, cell lysates containing 30 μg of protein were separated by SDS-PAGE, transferred to nitrocellulose and subjected to Western blot analysis using antibodies against phospho-p42/44 (dilution of 1:1000; A, upper panel) and total p42/ERK2 and p44/ERK1 (dilution 1:6000 each; B, lower panel). Blots were stained by the ECL method according to the manufacturer's recommendation. Bands corresponding to the phospho-p42/44 and total ERKs were densitometrically scanned and evaluated (B). Results in B are depicted as % of ST-968 stimulation and are means ±S.D. (n=3).
(§1) Rat renal mesangial cells were isolated, characterized, and cultured as previously described (Pfeilschifter et al., 1984). For the experiments performed in this study, cells between passages 8-30 were used. The human endothelial cell line EA.hy 926 was cultured in RPMI medium containing 10% (v/v) fetal bovine serum, 10 mM Hepes, pH 7.4, 100 units/ml penicillin, and 100 μg/ml streptomycin. HCT-116 colon carcinoma cells were cultured in McCoy medium including 10% (v/v) fetal bovine serum, 100 units/ml penicillin, and 100 μg/ml streptomycin. Prior to stimulation, all cells were rendered quiescent for 24 h in DMEM including 0.1 mg/ml of fatty acid-free bovine serum albumin (BSA).
(§2) Confluent mesangial cells were stimulated as indicated in the figure legends in Dulbecco's modified Eagle medium (DMEM) supplemented with 0.1 mg/ml of fatty acid-free bovine serum albumin and 10 mM HEPES. After stimulation, the supernatant was taken for PGE2 or NO quantification and for detection of secreted IIA-sPLA2. The cell monolayers were homogenized in lysis buffer and processed exactly as previously described (Huwiler et al., 2006). Cell lysates were taken for protein determination. Lysates containing equal amounts of protein, were separated by sodium dodecylsulfate-polyacrylamide gel electrophoresis (SDS-PAGE), transferred to nitrocellulose membranes and subjected for Western blot analysis using antibodies as indicated in the figure legends. Bands were detected by enhanced chemiluminescence method as recommended by the manufacturer.

[2] = test system: breast cancer cell lines (MCF-7, MDA-MB-231 and Sk-Br-3) and colon cancer cell lines (HCT-116 and SW620); conditions: cited from earlier work; for growth inhibition: Nagaoka et al. 2008, in the concentration tested
[3] = test system: colon cancer cell line HCT-116; test: colony formation assay; type: cell-based, human; conditions: HCT-116, 10 days of treatment
Procedure: Cells were seeded at a density of 700 cells per 60 mm-diameter dish in growth medium. After 24 h, cells were treated with either vehicle (Co) or the indicated concentrations (in μM) of FTY720, myriocin (myrio), ST-968, and ST-1071, and further cultured for 10 days at 37° C. Thereafter, colonies were stained and quantified as described in the Methods Section. […] Rat renal mesangial cells were isolated, characterized, and cultured as previously described (Pfeilschifter et al., 1984). For the experiments performed in this study, cells between passages 8-30 were used. The human endothelial cell line EA.hy 926 was cultured in RPMI medium containing 10% (v/v) fetal bovine serum, 10 mM Hepes, pH 7.4, 100 units/ml penicillin, and 100 μg/ml streptomycin. HCT-116 colon carcinoma cells were cultured in McCoy medium including 10% (v/v) fetal bovine serum, 100 units/ml penicillin, and 100 μg/ml streptomycin. Prior to stimulation, all cells were rendered quiescent for 24 h in DMEM including 0.1 mg/ml of fatty acid-free bovine serum albumin (BSA). Cells were subcultured in 60 mm-diameter dishes at a density of 700 cells per dish. After 24 h, cells were treated with the indicated concentrations of the different compounds in growth medium and incubated for further 10 days to allow colony formation. Cells were then washed with PBS, air dried, and stained for 30 min with 2% (w/v) crystal violet, washed with water and air dried again. The number of colonies was quantified using a ColCount™ (Mammalian Cell Colony Counter, Oxford Optronix, Oxford, U.K.). Only colonies containing more than 50 cells were evaluated.

[4] = test system: secretory phospholipase A2 (sPLA2) expression; test: cytokine-triggered secretory phospholipase A2 expression in renal mesangial cells, Western blot; type: cell-based, rat; conditions: IL-1β 1 nM plus forskolin 10 μM, 24 h, increasing doses of ST-968
Procedure: Cells were treated for 24 h with either vehicle (−, 0) or with interleukin 1 β (1 nM) plus forskolin (10 μM) (IL-1/Fk, +) in the absence (0) or presence of the indicated concentrations of ST-968. Thereafter, supernatants were collected and equal volumes were taken for protein precipitation using trichloroacetic acid. Equal aliquots were separated by SDS-PAGE, transferred to nitrocellulose and subjected to Western blot analysis using a monoclonal antibody against rat sPLA2 at a dilution of 1:60. Blots were stained by the ECL method according to the manufacturer's recommendation. Data are representative of two independent experiments giving similar results.
as §2, with “Lysates containing equal amounts of protein, were separated by sodium dodecylsulfate-polyacrylamide gel electrophoresis (SDS-PAGE), transferred to nitrocellulose membranes and subjected for Western blot analysis using antibodies as indicated in the figure legends.” left out, “manufacturer. […]” for “manufacturer.”

[5] = test system: nitric oxide (NO) formation; test: cytokine-triggered nitric oxide release from renal mesangial cells, Griess reagent; type: cell-based, rat; conditions: IL-1β 1 nM plus forskolin 10 μM, 24 h
Procedure: Cells were treated for 24 h with either vehicle (−) or with interleukin 1 β (1 nM) plus forskolin (10 μM) (IL-1/Fk, +) in the absence or presence of the indicated concentrations of ST-968 (in μM), or betamethasone (in nM). Thereafter, supernatants were collected and nitrite was quantified by using the Griess reagent.
Quiescent mesangial cells in 24-well plates were stimulated as indicated, and the supernatants were taken for nitrite determination using Griess reagent as described (Green et al., 1982).

[6] = test system: p42/44-MAPK phosphorylation in EA.hy 926 cells; test: MAPK/ERK phosphorylation in the endothelial cell line EA.hy 926, Western blot; type: cell-based, human; conditions: 1 μM
Procedure: Confluent EA.hy 926 cells were treated either for 10 min (left side) or for 4 h (right side) with either vehicle (Co), S1P (1 μM), or ST-968 (1 μM). Thereafter, cell lysates containing 30 μg of protein were separated by SDS-PAGE, transferred to nitrocellulose and subjected to Western blot analysis using antibodies against phospho-ERK½ (dilution of 1:1000; A, upper panel), and total p42/ERK2 and p44/ERK1(dilutions each 1:6000; B, lower panel). Blots were stained by the ECL method according to the manufacturer's recommendation. Bands corresponding to the phospho-ERKs were densitometrically evaluated and results are depicted as % of control and are means ±S.D. ([…]).
as §1
as §2, with “Lysates containing equal amounts of protein, were separated by sodium dodecylsulfate-polyacrylamide gel electrophoresis (SDS-PAGE), transferred to nitrocellulose membranes and subjected for Western blot analysis using antibodies as indicated in the figure legends.” left out

EA.hy 926 cells = test: serum-stimulated migration of endothelial cells, adapted Boyden chamber assay; type: cell-based, human; conditions: 10% serum, 6 h, at 3 μM and 10 μM
Procedure: Serum-starved EA. by 926 cells in 8 μM-polycarbonate inserts were treated for 6 h with 10% serum in the absence or presence of the indicated concentrations of ST-968 or ST-1071. Migrated cells were stained with DAPI and counted in a fluorescence microscop.
EA.hy 926 cells were cultured for 24 h under serum-free conditions. Chemotaxis was measured in Cell Culture Inserts (polycarbonate-coated membranes, […] pore size). The lower compartment was filled with serum-free DMEM and 1.7×10^5 cells were seeded per insert in the absence or presence of the indicated stimuli and inhibitors. After the indicated time periods, non-migrated cells were mechanically removed from the membrane and cells that had migrated into the membrane were fixed in 4% paraformaldehyde in PBS and stained with lug/ml of 4′,6-diamidino-2-phenylindole (DAPI). DAPI-stained cells were counted using a fluorescence microscope. Each data point is the average number of cells in five random fields and is the mean of four individual wells.

MCF-7 cells = conditions: Nagaoka et al. 2008; cited from earlier work

Compound: pertussis toxin [reference compound]
- effect on ST-968-induced p42/44 activation [1]: only partially blocked

Compound: CCCCCCCCc1cccc(NC(=O)[C@H](N)COP(=O)(O)O)c1 [VPC23019, reference compound]
- effect on ST-968-induced p42/44 activation [1]: completely abolished

Compound: CCCCCCCCCCCCC/C=C/[C@@H](O)[C@H](CO)N(C)C [dimethylsphingosine]
- effect of the combination on the inhibitory effect of FTY720 ([2]; combined with FTY720, Nagaoka et al. 2008): augmented the inhibitory effect of FTY720

Compound: CCCCCCCCc1ccc(CCC(N)(CO)CO)cc1.Cl [FTY720, 2-Amino-2[2-(4-octylphenyl)ethyl]propane-1,3-diol, reference compound]
- colony formation [3]: completely abolished colony formation
- growth inhibition [2]: significant growth inhibition

Compound: CCCCCCCCc1ccc(CCC23COCN2COC3)cc1 [ST-968, 7a-(4-Octylphenethyl)Tetrahydro-1H-Oxazolo[3,4-c]Oxazole]
- agonistic potential on S1P receptors [1]: have agonistic potential on one or several of the S1P receptors
- agonistic potential on S1P receptors ([1]; listed as ST 968): exhibited agonistic potential for one or several of the S1P receptor subtypes
- p42/44 phosphorylation (p42/44-MAPK activity) [1]: increased p42/44 phosphorylation
- sPLA2 expression [4]: reduced
- IL-1β/forskolin induced NO formation [5]: dose-dependently reduced
- activation of the p42/44-MAPK cascade [6]: could activate the p42/44-MAPK cascade
- p42/44 phosphorylation, ST-968 compared with S1P ([6]; 4 h of stimulation): more potently increasing p42/44 phosphorylation than S1P
- serum-stimulated migration (EA.hy 926 cells): able to reduce serum-stimulated migration
- colony formation [3]: strongly reduced colony formation
- colony formation ([3]; listed as ST 968): inhibited and/or reduced the colony formation

Compound: CCCCCCCCCCCCC/C=C/[C@@H](O)[C@@H](N)CO [sphingosine]
- growth inhibition [2]: significant growth inhibition

Compound: CCCCCCCCc1ccc(CC[C@](N)(CO)COP(=O)(O)O)cc1 [FTY720-P, FTY720-1-phosphate]
- growth inhibition [2]: did not inhibit the growth
- growth of MCF-7 cells (MCF-7 cells): slightly induced the growth

Compound: CCCCCCCCCCCCC/C=C/[C@@H](O)[C@@H](N)COP(=O)(O)O [S1P, sphingosine-1-phosphate]
- p42/44 phosphorylation, S1P compared with ST-968 ([6]; 10 min of stimulation): more potent to increase p42/44 phosphorylation than ST-968
- growth inhibition [2]: did not inhibit the growth
- growth of MCF-7 cells (MCF-7 cells): slightly induced the growth

Compound: CCCCCCCOc1ccc(CCC23COCN2COC3)cc1 [ST-1071, 7a-(4-(Heptyloxy)Phenethyl)Tetrahydro-1H-Oxazolo[3,4-c]Oxazole]
- agonistic potential on S1P receptors [1]: have agonistic potential on one or several of the S1P receptors
- agonistic potential on S1P receptors ([1]; listed as ST1071): exhibited agonistic potential for one or several of the S1P receptor subtypes
- p42/44 phosphorylation (p42/44-MAPK activity) [1]: stimulated p42/44 phosphorylation after 10 min in a concentration-dependent manner
- potency on p42/44 phosphorylation compared with S1P ([1]; renal mesangial cells, 10 min): less potent than S1P
- serum-stimulated migration (EA.hy 926 cells): able to reduce serum-stimulated migration
- colony formation [3]: strongly reduced colony formation
- colony formation ([3]; listed as ST 1071): inhibited and/or reduced the colony formation

Compound: CCCCCCc1cccc(NC(=O)[C@H](N)CCP(=O)(O)O)c1 [W146, (R)-3-amino-(3-hexylphenylamino)-4-oxobutylphosphonic acid, reference compound]
- effect on ST-968-induced p42/44 activation [1]: had no effect

Compound: CCCCCCC(=O)CCCCCC/C=C/C[C@@H](O)[C@H](O)[C@@](N)(CO)C(=O)O [myriocin, reference compound]
- colony formation [3]: had no effect
